Experimental data from ChEMBL document CHEMBL4002643, “Tubulin-binding dibenz[c,e]oxepines: Part 2. Structural variation and biological evaluation as tumour vasculature disrupting agents” (Bioorg Med Chem, 2017).

Experiments:
COLO 205 = assay: Cytotoxicity against human COLO205 cells assessed as growth inhibition after 48 hrs by SRB assay; format: functional; conditions: COLO 205, 48 h
U-251 = assay: Cytotoxicity against human U251 cells assessed as growth inhibition after 48 hrs by SRB assay; format: functional; conditions: U-251, 48 h
SK-MEL-28 = assay: Cytotoxicity against human SK-MEL-28 cells assessed as growth inhibition after 48 hrs by SRB assay; format: functional; conditions: SK-MEL-28, 48 h
CCRF-CEM = assay: Cytotoxicity against human CCRF-CEM cells assessed as growth inhibition after 48 hrs by SRB assay; format: functional
BT-549 = assay: Cytotoxicity against human BT549 cells assessed as growth inhibition after 48 hrs by SRB assay; format: functional; conditions: BT-549, 48 h
RXF 393 = assay: Cytotoxicity against human RXF393 cells assessed as growth inhibition after 48 hrs by SRB assay; format: functional; conditions: RXF 393, 48 h
HCC 2998 = assay: Cytotoxicity against human HCC2998 cells assessed as growth inhibition after 48 hrs by SRB assay; format: functional; conditions: HCC 2998, 48 h
MOLT-4 = assay: Cytotoxicity against human MOLT4 cells assessed as growth inhibition after 48 hrs by SRB assay; format: functional; conditions: MOLT-4, 48 h
MCF7 = assay: Cytotoxicity against human MCF7 cells assessed as growth inhibition after 48 hrs by SRB assay; format: functional; conditions: MCF7, 48 h
RPMI-8226 = assay: Cytotoxicity against human RPMI8226 cells assessed as growth inhibition after 48 hrs by SRB assay; format: functional; conditions: RPMI-8226, 48 h
786-0 = assay: Cytotoxicity against human 786-0 cells assessed as growth inhibition after 48 hrs by SRB assay; format: functional; conditions: 786-0, 48 h
NCI-H226 = assay: Cytotoxicity against human NCI-H226 cells assessed as growth inhibition after 48 hrs by SRB assay; format: functional; conditions: NCI-H226, 48 h
[1] = Inhibition of porcine tubulin assembly measured for 30 mins by UV/visible spectrophotometric method; set-up: species or system Sus scrofa
SW-620 = assay: Cytotoxicity against human SW620 cells assessed as growth inhibition after 48 hrs by SRB assay; format: functional; conditions: SW-620, 48 h
T47D = assay: Cytotoxicity against human T47D cells assessed as growth inhibition after 48 hrs by SRB assay; format: functional
NCI-H322M = assay: Cytotoxicity against human NCI-H322M cells assessed as growth inhibition after 48 hrs by SRB assay; format: functional
MDA-MB-231 = assay: Cytotoxicity against human MDA-MB-231 cells assessed as growth inhibition after 48 hrs by SRB assay; format: functional; conditions: MDA-MB-231, 48 h
SN12C = assay: Cytotoxicity against human SN12C cells assessed as growth inhibition after 48 hrs by SRB assay; format: functional
MDA-MB-435 = assay: Cytotoxicity against human MDA-MB-435 cells assessed as growth inhibition after 48 hrs by SRB assay; format: functional; conditions: MDA-MB-435, 48 h
KM12 = assay: Cytotoxicity against human KM12 cells assessed as growth inhibition after 48 hrs by SRB assay; format: functional; conditions: KM12, 48 h
LOX IMVI = assay: Cytotoxicity against human LOXIMVI cells assessed as growth inhibition after 48 hrs by SRB assay; format: functional
HCT-116 = assay: Cytotoxicity against human HCT116 cells assessed as growth inhibition after 48 hrs by SRB assay; format: functional; conditions: HCT-116, 48 h
M14 = assay: Cytotoxicity against human M14 cells assessed as growth inhibition after 48 hrs by SRB assay; format: functional; conditions: M14, 48 h
PC-3 = assay: Cytotoxicity against human PC3 cells assessed as growth inhibition after 48 hrs by SRB assay; format: functional; conditions: PC-3, 48 h
NCI/ADR-RES = assay: Cytotoxicity against human NCI-ADR-RES cells assessed as growth inhibition after 48 hrs by SRB assay; format: functional
SF-539 = assay: Cytotoxicity against human SF539 cells assessed as growth inhibition after 48 hrs by SRB assay; format: functional; conditions: SF-539, 48 h
CAKI-1 = assay: Cytotoxicity against human Caki1 cells assessed as growth inhibition after 48 hrs by SRB assay; format: functional; conditions: CAKI-1, 48 h
UACC-257 = assay: Cytotoxicity against human UACC257 cells assessed as growth inhibition after 48 hrs by SRB assay; format: functional; conditions: UACC-257, 48 h
Hs-578T = assay: Cytotoxicity against human Hs 578T cells assessed as growth inhibition after 48 hrs by SRB assay; format: functional
SK-OV-3 = assay: Cytotoxicity against human SKOV3 cells assessed as growth inhibition after 48 hrs by SRB assay; format: functional; conditions: SK-OV-3, 48 h
MDA-MB-468 = assay: Cytotoxicity against human MDA-MB-468 cells assessed as growth inhibition after 48 hrs by SRB assay; format: functional; conditions: MDA-MB-468, 48 h
A549 = assay: Cytotoxicity against human A549 cells assessed as growth inhibition after 48 hrs by SRB assay; format: functional; conditions: A549, 48 h
NCI-H23 = assay: Cytotoxicity against human NCI-H23 cells assessed as growth inhibition after 48 hrs by SRB assay; format: functional; conditions: NCI-H23, 48 h
UACC-62 = assay: Cytotoxicity against human UACC62 cells assessed as growth inhibition after 48 hrs by SRB assay; format: functional; conditions: UACC-62, 48 h
A498 = assay: Cytotoxicity against human A498 cells assessed as growth inhibition after 48 hrs by SRB assay; format: functional; conditions: A498, 48 h
HL-60(TB) = assay: Cytotoxicity against human HL-60(TB) cells assessed as growth inhibition after 48 hrs by SRB assay; format: functional; conditions: HL-60, 48 h
UO-31 = assay: Cytotoxicity against human UO31 cells assessed as growth inhibition after 48 hrs by SRB assay; format: functional; conditions: UO-31, 48 h
NCI-H460 = assay: Cytotoxicity against human NCI-H460 cells assessed as growth inhibition after 48 hrs by SRB assay; format: functional; conditions: NCI-H460, 48 h
SNB-75 = assay: Cytotoxicity against human SNB75 cells assessed as growth inhibition after 48 hrs by SRB assay; format: functional; conditions: SNB-75, 48 h
SNB-19 = assay: Cytotoxicity against human SNB19 cells assessed as growth inhibition after 48 hrs by SRB assay; format: functional; conditions: SNB-19, 48 h
SF-295 = assay: Cytotoxicity against human SF295 cells assessed as growth inhibition after 48 hrs by SRB assay; format: functional; conditions: SF-295, 48 h
SK-MEL-5 = assay: Cytotoxicity against human SK-MEL-5 cells assessed as growth inhibition after 48 hrs by SRB assay; format: functional; conditions: SK-MEL-5, 48 h
HOP-62 = assay: Cytotoxicity against human HOP62 cells assessed as growth inhibition after 48 hrs by SRB assay; format: functional; conditions: HOP-62, 48 h
OVCAR-4 = assay: Cytotoxicity against human OVCAR4 cells assessed as growth inhibition after 48 hrs by SRB assay; format: functional; conditions: OVCAR-4, 48 h
NCI-H522 = assay: Cytotoxicity against human NCI-H522 cells assessed as growth inhibition after 48 hrs by SRB assay; format: functional; conditions: NCI-H522, 48 h
SR = assay: Cytotoxicity against human SR cells assessed as growth inhibition after 48 hrs by SRB assay; format: functional

COc1ccc2c(c1)COCc1cc(OC)c(OC)c(OC)c1-2 gave a GI50 (COLO 205) of 110 nM, a GI50 (U-251) of 100 nM and a GI50 (SK-MEL-28) of 80 nM. The GI50 (CCRF-CEM) was 80 nM, the GI50 (BT-549) was 200 nM and the GI50 (RXF 393) was 80 nM. The GI50 (HCC 2998) was 220 nM, the GI50 (MOLT-4) was 90 nM and the GI50 (MCF7) was 40 nM. It also gave a GI50 (RPMI-8226) of 330 nM, a GI50 (786-0) of 340 nM and a GI50 (NCI-H226) of 1580 nM. For the same compound, the IC50 [1] was 7400 nM, the GI50 (SW-620) was 50 nM and the GI50 (T47D) was greater than 100000 nM. For the same compound, the GI50 (NCI-H322M) was 2040 nM, the GI50 (MDA-MB-231) was 590 nM and the GI50 (SN12C) was 830 nM. For the same compound, the GI50 (MDA-MB-435) was 30 nM, the GI50 (KM12) was 50 nM and the GI50 (LOX IMVI) was 210 nM. The GI50 (HCT-116) was 50 nM, the GI50 (M14) was 50 nM and the GI50 (PC-3) was 480 nM. It also gave a GI50 (NCI/ADR-RES) of 70 nM, a GI50 (SF-539) of 160 nM and a GI50 (CAKI-1) of 30200 nM. For the same compound, the GI50 (UACC-257) was greater than 100000 nM, the GI50 (Hs-578T) was 240 nM and the GI50 (SK-OV-3) was 130 nM. The GI50 (MDA-MB-468) was 30 nM, the GI50 (A549) was 130 nM and the GI50 (NCI-H23) was 440 nM. The GI50 (UACC-62) was 80 nM, the GI50 (A498) was 170 nM and the GI50 (HL-60(TB)) was 40 nM. For the same compound, the GI50 (UO-31) was 15100 nM, the GI50 (NCI-H460) was 170 nM and the GI50 (SNB-75) was 90 nM. For the same compound, the GI50 (SNB-19) was 980 nM, the GI50 (SF-295) was 60 nM and the GI50 (SK-MEL-5) was 30 nM. For the same compound, the GI50 (HOP-62) was 1120 nM, the GI50 (OVCAR-4) was 740 nM and the GI50 (NCI-H522) was 280 nM. It also gave a GI50 (SR) of 40 nM.

COc1ccc2c(c1OP(=O)([O-])[O-])COCc1cc(OC)c(OC)c(OC)c1-2.[Na+].[Na+] showed a GI50 (COLO 205) of 620 nM, a GI50 (U-251) of 480 nM and a GI50 (SK-MEL-28) of 890 nM. It also gave a GI50 (CCRF-CEM) of 290 nM, a GI50 (BT-549) of 2240 nM and a GI50 (RXF 393) of 210 nM. For the same compound, the GI50 (HCC 2998) was 420 nM, the GI50 (MOLT-4) was 400 nM and the GI50 (MCF7) was 400 nM. The GI50 (RPMI-8226) was 460 nM, the GI50 (786-0) was 720 nM and the GI50 (NCI-H226) was 2820 nM. For the same compound, the IC50 [1] was 1400 nM, the GI50 (SW-620) was 400 nM and the GI50 (T47D) was 8510 nM. It also gave a GI50 (NCI-H322M) of 1320 nM, a GI50 (MDA-MB-231) of 710 nM and a GI50 (SN12C) of 720 nM. For the same compound, the GI50 (MDA-MB-435) was 40 nM, the GI50 (KM12) was 300 nM and the GI50 (LOX IMVI) was 660 nM. It also gave a GI50 (HCT-116) of 430 nM, a GI50 (M14) of 270 nM and a GI50 (PC-3) of 560 nM. For the same compound, the GI50 (NCI/ADR-RES) was 280 nM, the GI50 (SF-539) was 330 nM and the GI50 (CAKI-1) was 790 nM. It also gave a GI50 (UACC-257) of 4680 nM, a GI50 (Hs-578T) of 240 nM and a GI50 (SK-OV-3) of 400 nM. It also gave a GI50 (MDA-MB-468) of 1150 nM, a GI50 (A549) of 420 nM and a GI50 (NCI-H23) of 710 nM. It also gave a GI50 (UACC-62) of 5500 nM, a GI50 (A498) of 18600 nM and a GI50 (HL-60(TB)) of 320 nM. For the same compound, the GI50 (UO-31) was 19500 nM, the GI50 (NCI-H460) was 360 nM and the GI50 (SNB-75) was 540 nM. For the same compound, the GI50 (SNB-19) was 510 nM, the GI50 (SF-295) was 320 nM and the GI50 (SK-MEL-5) was 260 nM. It also gave a GI50 (HOP-62) of 790 nM, a GI50 (OVCAR-4) of 1290 nM and a GI50 (NCI-H522) of 300 nM. It also gave a GI50 (SR) of 190 nM.
